The subject of test [1] is human colorectal cancer cell line COLO-320DM. Briefly: MTT assay, combination of test compound and other anticancer agents. Format: cell-based. The note with it: Examples 9 to 14, COLO-320DM: test compound added at the concentration shown in FIGS. 9 to 14 to irinotecan (SN-38); survival with only irinotecan = 100%. The procedure: The ratio of residual cells in treatment of the human colorectal cancer cell line COLO-320DM with a combination of the compound prepared in each Compound Example (test compound or tankyrase inhibitory compound) and each of the anticancer agents was measured to evaluate the cell killing effect of the combination on the human colorectal cancer cell line COLO-320DM. The combinations of test compounds and anticancer agents are as follows.
(Example 8): combination of the compound prepared in Compound Example 5 and temozolomide, melphalan, gemcitabine, cytarabine (Ara-C), fluorouracil (5-FU), pemetrexed, mercaptopurine, methotrexate, irinotecan (SN-38), etoposide (VP-16), actinomycin D, daunorubicin, doxorubicin, bleomycin, mitoxantrone, oxaliplatin, carboplatin or cisplatin (Example 9): combination of the compound prepared in Compound Example 110 (G007-LK) and irinotecan (SN-38) (Example 10): combination of the compound prepared in Compound Example 11 and irinotecan (SN-38) (Example 11): combination of the compound prepared in Compound Example 19 and irinotecan (SN-38) (Example 12): combination of the compound prepared in Compound Example 101 and irinotecan (SN-38) (Example 13): combination of the compound prepared in Compound Example 1 and irinotecan (SN-38) (Example 14): combination of the compound prepared in Compound Example 113 and irinotecan (SN-38)
Commercially available compounds were used for temozolomide (manufactured by Sigma-Aldric), melphalan (manufactured by Signa-Aldrich), gemcitabine (Gemcitabine hydrochloride; manufactured by Sigma-Aldric), cytarabine (Cytosine β-D-arabinofuranoside (Ara-C); manufactured by Sigma-Aldrich), fluorouracil (5-Fluorouracil (5-FU); manufactured by Sigma-Aldrich), pemetrexed (Pemetrexed disodium heptahydrate; manufactured by Sigma-Aldrich), mercaptopurine (6-Mercaptopurine monohydrate; manufactured by Sigma-Aldrich), methotrexate (Methotrexate hydrate; manufactured by Sigma-Aldrich), irinotecan (7-Ethyl-10-hydroxycamptothecin (SN-38); manufactured by Sigma-Aldrich), etoposide (Etoposide (VP-16); manufactured by Enzo Life Sciences, Inc.), actinomycin D (manufactured by nacalai tesque), daunorubicin (Daunorubicin hydrochloride; Calbiochem), doxorubicin (Doxorubicin hydrochloride; manufactured by Sigma-Aldrich), bleomycin (Bleomycin sulfate; manufactured by Enzo Life Sciences, Inc.), mitoxantrone (Mitoxantrone dihydrochloride; manufactured by Sigma-Aldrich), oxaliplatin (manufactured by Sigma-Aldrich), carboplatin (manufactured by Sigma-Aldrich) and cisplatin (manufactured by Enzo Life Sciences, Inc.).
First, the human colorectal cancer cell line COLO-320DM was suspended in RPMI1640 medium (hereinafter, medium) containing inactivated 10% fetal bovine serum, and the cells were seeded in a 96-well microplate at 350 cells (75 μL) per well. The cells were subjected to stationary culture overnight in a CO2 incubator at 37° C. Thereafter, in Example 8, a medium (25 μL) containing a combination of the compound prepared in Compound Example 5 and each of the anticancer agents was added in triplicate in such a manner that the final concentrations of the test compound (compound prepared in Compound Example 5) were 0 nM or 30 nM and that the final concentrations of each anticancer agent were those shown in Table 14. In Examples 9 to 14, a medium (25 μL) containing a combination of the compound prepared in each of Compound Examples and each of the anticancer agents was added in triplicate in such a manner that the final concentrations of the test compound were 0 nM or those shown in FIGS. 9 to 14. As a control, 25 μL of a medium containing only dimethyl sulfoxide (DMSO) which is a solvent was added. […]
On the technique in general: Tetrazolium assays rely on reduction of a dye to a coloured formazan, in cell work by metabolically active cells.

The next test addresses T1, tankyrase 1 (Homo sapiens, UniProt O95271).
T1 construct: tankyrase 1 (1,024-1, 327aa, SAM+PARP); made in house; host or cells: cell-free protein expression system
Briefly: Tankyrase inhibitory activity test (ELISA, auto-poly(ADP-ribosyl)ation), TNKS1. Format: biochemical. The note with it: Flag-tagged tankyrase 1 (SAM+PARP), read-out: TNKS1 (inhibitory activity against tankyrase 1), IC50 rating. The protocol: The enzymatic activity of tankyrase 1 and the enzymatic activity of tankyrase 2 were measured by the ELISA method based on assessment of auto-poly(ADP-ribosyl)ation to evaluate the tankyrase inhibitory activity of the compound prepared in each of Compound Examples (test compound) (inhibitory activity against tankyrase 1 (TNKS1) and inhibitory activity against tankyrase 2 (TNKS2)). First, Flag-tagged tankyrase 1 (1,024-1, 327aa, SAM+PARP) and tankyrase 2 (613-1, 116aa, ANK5+SAM+PARP) were synthesized with a cell-free protein expression system, and diluted with a Tris buffer solution (50 mM Tris-HCl (pH 8.0), 150 mM NaCl, 10% glycerol). 50 μL of the diluted tankyrase 1 or tankyrase 2 was added to a plate with an anti-FLAG M2 monoclonal antibody immobilized thereon (Anti-FLAG High-Sensitivity M2-Coated Plate) (Sigma-Aldrich), and the mixture was left to stand overnight at 4° C. Thereafter, the plate was washed four times with a PBS (PBST) buffer containing 0.1% TritonX-100.
Subsequently, the test compound diluted with an assay buffer (50 mM Tris-HCl (pH 8.0), 4 mM MgCl2, 0.2 mM DTT) (DMSO was used as a control) was added to each well of the plate, and the mixture was left to stand at room temperature for 10 minutes. Thereafter, a biotin-labeled NAD solution (225 μM NAD, 25 μM 6-Biotin-17-NAD (Travigen, Inc.)) was added and mixed as a donor substrate, and the mixture was reacted at 30° C. for 45 minutes. To blank wells was added distilled water instead of the biotin-labeled NAD solution. After the reaction, the plate was washed with a PBST buffer four times. Thereafter, HRP (horseradish peroxidase)-labeled streptavidin (Travigen, Inc.) was diluted with a PBS buffer by 1,000 times, and added to each well, and the mixture was reacted at room temperature for 20 minutes. The plate was washed with a PBST buffer four times, a chemiluminescent substrate solution TACS-Sapphire (Travigen, Inc.) was then added to each well, the mixture was reacted at room temperature for 20 minutes, and thechemiluminescence intensity was measured using a chemiluminescence measuring apparatus.
The residual enzymatic activity in the presence of the test compound was determined from the following expression. On the basis of the residual enzymatic activity at each of multiple concentrations of the test compound, the enzyme inhibitory activity was calculated in terms of a 50%-inhibition concentration (IC50 value) using data analysis software Origin (LightStone Corp.). Residual activity (%)={(chemiluminescence intensity with test compound added)−(chemiluminescence intensity of blank)}/{(chemiluminescence intensity of control)−(chemiluminescence intensity of blank))

The structures appear in SMILES notation. Bounds are passed on as bounds.

As a reminder, the IC50 is the concentration that inhibits the measured activity by half.

T1 sequence (O95271 1024-1327): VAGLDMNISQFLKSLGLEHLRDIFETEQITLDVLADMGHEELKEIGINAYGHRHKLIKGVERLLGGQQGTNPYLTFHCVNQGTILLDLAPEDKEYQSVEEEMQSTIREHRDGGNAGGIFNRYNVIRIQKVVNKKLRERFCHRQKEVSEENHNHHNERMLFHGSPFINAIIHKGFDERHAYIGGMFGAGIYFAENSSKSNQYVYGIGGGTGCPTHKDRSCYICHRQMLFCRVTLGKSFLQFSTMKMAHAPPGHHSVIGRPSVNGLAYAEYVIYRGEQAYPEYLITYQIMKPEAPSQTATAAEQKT

Consider `COc1ccc(-c2c[nH]nc2C2NC(=O)c3cccc(C)c3N2)cc1` (stereo not shown) [Compound Example 113, 2-[4-(4-Methoxyphenyl)-1H-pyrazol-3-yl]-8-methyl-2,3-dihydro-1H-quinazolin-4-one], for which the cell survival rate result in test [1] is recorded as “about 50%”. Moreover, the IC50 at tankyrase 1 is < 20 nM.
On the same counts, the results for `CCOc1ccc(-c2n[nH]nc2[C@H]2NC(=O)c3cccc(C)c3N2)cc1` [Compound Example 101, (2R)-2-[5-(4-Ethoxyphenyl)-2H-1,2,3-triazol-4-yl]-8-methyl-2,3-dihydro-1H-quinazolin-4-one] are “about 50%” and < 20 nM.

The record behind these values is patent US20210060016A1, “ANTICANCER AGENT” (JAPANESE FOUNDATION FOR CANCER RESEARCH, priority 2017, published 2021).
